Experiment [1] deals with mouse neuroblastoma (N2a) cells. As to the kind of experiment: Quantitative real-time RT-PCR: mRNA expression of mitochondrial dynamics, biogenesis and synaptic genes. The experiment is classed as cell-based. Conditions: N2a cells + Aβ42; Mdivi1 given before (preventive) vs after (curative) Aβ42; mRNA and protein data. As to the method: (§1) Tissue culture: The N2a cells were grown for 3 days in a serum-free medium (1:1 mixture of DMEM and OptiMEM, plus penicillin and streptomycin [Invitrogen, Carlsbad, Calif., USA]) until the cells developed neuronal processes.
Quantitative real-time RT-PCR: Using the reagent TriZol (Invitrogen), total RNA was isolated from cell pellets from the 5 N2a cell groups (FIG. 1). Using primer express software (Applied Biosystems, Carlsbad, Calif., USA), the inventors designed the oligonucleotide primers for the housekeeping genes 3-actin, GAPDH, mitochondrial structural genes, fission genes (Drp1, Fis1), fusion genes (MFN1, MFN2, Opa1), biogenesis genes (PGC1c, Nrf1, Nrf2, TFAM), and synaptic genes (synaptophysin and PSD95) (see Table 1 for primer sequences and amplicon sizes). Using SYBR-Green chemistry-based quantitative real-time RT-PCR, mRNA expressions of the above-mentioned genes were measured, as described by Manczak and Reddy.
The mRNA transcript level was normalized against β-actin and the GAPDH at each dilution. The standard curve was the normalized mRNA transcript level, plotted against the log-value of the input cDNA concentration at each dilution. To compare β-actin, GAPDH, and relative quantification was performed according to the (CT) method (Applied Biosystems). […] The ΔCT-value was obtained by subtracting the average β-actin CT value from the average CT-value of the synaptic mitochondrial ETC genes and the mitochondrial structural genes. The ΔCT of untreated cells was used as the calibrator. The fold change was calculated according to the formula 2^-(Δ ΔCT), where ΔΔCT is the difference between ΔCT and the ΔCT calibrator value. To determine the statistical significance of mRNA expression, the CT value differences between the untreated cells and other experimental groups of cells were used in relation to β-actin normalization. Statistical significance was calculated, using one-way ANOVA.
In general terms: Quantitative PCR measures a nucleic acid by following its amplification.

Experiment [2] shares this test system. As to the kind of experiment: Immunoblotting analysis of mitochondrial dynamics, biogenesis and synaptic proteins. The experiment is classed as cell-based. The settings on record: Mdivi1 24 hrs or Aβ42 20 μM 6 hrs alone, vs untreated N2a cells. As to the method: as §1
Twenty g of protein was resolved from each group of cells on a 4-12% Nu-PAGE gel (Invitrogen). The resolved proteins were transferred to […] (Novax Inc., San Diego, Calif., USA) and were then incubated for 1 hour at room temperature with a blocking buffer (5% dry milk dissolved in a TBST buffer). The PVDF membranes were incubated overnight with primary antibodies (see Table 2) and washed 3 times with a TBST buffer at 10-minute intervals. They were then incubated for 2 hours with appropriate secondary antibodies, followed by 3 additional washes at 10-minute intervals. Mitochondrial and synaptic proteins were detected with cheminilumniscence reagents (Pierce Biotechnology, Rockford, Ill., USA), and the bands from immunoblots were quantified on a Kodak scanner, following manufacturer's instructions (ID Image Analysis Software, Kodak Digital Science, Kennesaw, Ga., USA), and the gel images were analyzed from gel images captured with a Kodak digital science CD camera. The lanes were marked to define the positions and specific regions of the bands. An ID fine-band command was used to locate and to scan the bands in each lane and to record the readings.
(In general: A western blot detects proteins with antibodies after separation by electrophoresis.)

The subject of experiment [3] is N2a cells. As to the kind of experiment: Cell viability (MTT assay). The experiment is classed as cell-based, mouse. Conditions: Mdivi1 24 hrs or Aβ42 20 μM 6 hrs alone, vs untreated N2a cells. How it is done: as §1
The N2a cells from all 5 groups (4 treatment groups and 1 control group) were harvested, and their cell pellets were collected and used for quantitative real-time RT-PCR, immunoblotting analysis of mitochondrial and synaptic proteins, and mitochondrial functional assays for hydrogen peroxide production, lipid peroxidation, cytochrome c oxidase activity, and MTT determination. Isolated mitochondria from N2a cells from all 5 groups were used to determine mitochondrial ATP as described in Reddy et al..
On the technique in general: Tetrazolium dyes change colour on reduction, which living cells bring about.

In experiment [4] the test system is N2a cell mitochondria. As to the kind of experiment: Mitochondrial ATP levels (luciferase bioluminescence). Conditions: N2a cells; Mdivi1 24 hrs or Aβ42 20 μM 6 hrs alone; vs untreated N2a cells. The experiment is classed as cell-based, mouse. How it is done:
as §1
ATP levels: ATP levels were measured in N2a cell mitochondria from the treatment groups using an ATP determination kit (Molecular Probes). A bioluminescence assay was used, based on the reaction of ATP with recombinant firefly luciferase and its substract luciferin. Luciferase catalyzes the formation of light from ATP and luciferin. It is the emitted light that is linearly related to the concentration of ATP, which is measured with a luminometer. ATP levels were measured from mitochondrial pellets using a standard curve method.

Experiment [5] relates to N2a cells. Put plainly: Lipid peroxidation assay (4-hydroxy-2-nonenol, HNE-His ELISA). The experiment is classed as cell-based, mouse. Conditions: Mdivi1 24 hrs or Aβ42 20 μM 6 hrs alone, vs untreated N2a cells. As to the method: as §1
Lipid peroxidation assay: Lipid peroxidates are unstable indicators of oxidative stress in the brain. The final product of lipid peroxidation is 4-hydroxy-2-nonenol (HNE), which was measured in the N2a cell lysates prepared from cell pellets of control and treatment groups. The inventors used an HNE-His ELISA kit (Cell BioLabs, Inc., San Diego, Calif., USA), as described in Manczak and Reddy. Briefly, freshly prepared protein as added to a 96-well protein binding plate and incubated overnight at 4° C. The protein then washed 3 times with a buffer. After the last wash, the anti-HNE-His antibody was added to the protein in the wells, incubated for 2 hours at room temperature, and then washed again 3 times. The samples were then incubated with a secondary antibody conjugated with peroxidase for 2 hours at room temperature, followed by incubation with an enzyme substrate. Optical density was measured (at 450 nm) to quantify the level of HNE.

The test system of experiment [6] is N2a cells. As to the kind of experiment: H2O2 production (Amplex Red H2O2 assay). The settings on record: Mdivi1 24 hrs or Aβ42 20 μM 6 hrs alone, vs untreated N2a cells. The experiment is classed as cell-based, mouse. As to the method: as §1
Mitochondrial functional assays. H2O2 production: Using an Amplex® Red H2O2 assay kit (Molecular Probes, Eugene, Oreg., USA), H2O2 production was measured using cell pellets, as described in Manczak and Reddy. Briefly, H2O2 production was measured in the protein lysates prepared from cell pellets of control untreated N2a cells and 4 treatment groups (FIG. 1). A BCA protein assay kit (Pierce Biotechnology) was used to estimate protein concentration. The reaction mixture contained mitochondrial proteins (μg/μl), Amplex Red reagents (50 μM), horseradish peroxidase (0.1 U/ml), and a reaction buffer (1×). The mixture was incubated at room temperature for 30 minutes, followed by spectrophotometer readings of fluorescence (570 nm). Finally, H2O2 production was determined, using a standard curve equation expressed in nmol/μg mitochondrial protein.

The subject of experiment [7] is N2a cells. As to the kind of experiment: Cytochrome c oxidase activity. The experiment is classed as cell-based, mouse. The settings on record: Mdivi1 24 hrs or Aβ42 20 μM 6 hrs alone, vs untreated N2a cells. As to the method: as §1
Cytochrome c oxidase activity: Cytochrome oxidase activity was measured in each of the 5 groups of N2a cells. Enzyme activity was assayed spectrophotometrically using a Sigma Kit (Sigma-Aldrich) following manufacturer's instructions. […] The decrease in absorbance at […] was recorded for 1-min reactions at 10-sec intervals. Cytochrome oxidase activity was measured according to the following formula: mU/mg total mitochondrial protein=(A/min sample−(A/min blank)×1.1 mg protein×21.84). The protein concentrations were determined following the BCA method.

We go through 2 molecules from US20190307749A1, “Mitochondria-Division Inhibitor 1 Protects Against Amyloid-B Induced Mitochondrial Fragmentation and Synaptic Damage in Alzheimer's Disease” (Texas Tech University System, priority 2018, published 2019).

For the molecule `O=c1c2ccccc2[nH]c(=S)n1-c1cc(O)c(Cl)cc1Cl` [water soluble Mdivi1, 3-(2,4-dichloro-5-hydroxyphenyl)-2-thioxo-2,3-dihydroquinazolin-4(1H)-one], the “Protective effects against Aβ42, pre-treated vs post-treated cells” value in experiment [1] is “stronger in pre-treated cells than post-treated cells”.
Take “Aβ42: Aβ42 peptide purchased from Anaspec, used to induce mitochondrial and synaptic toxicity in N2a cells”: in experiment [2], the Drp1 protein level result is “significantly higher”, the Fis1 protein level result is on record as “significantly higher”, the Mfn1 protein level result was “significantly lower” and the Mfn2 protein level entry was “significantly lower”. In experiment [2], the Nrf1 protein level result is on record as “Significantly lower”, the Nrf2 protein level result is “Significantly lower”, the Opa1 protein level entry was “significantly lower” and the PGC1α protein level result is “Significantly lower”. Moreover, in experiment [2], the PSD95 protein level entry is “significantly lower” and the Synaptophysin protein level result was “significantly lower”. In experiment [2] (listed as Aβ), the PSD95 protein level result was “significantly higher” and the Synaptophysin protein level entry was “significantly higher”. The Cell viability entry in experiment [3] was “Significantly lower”. Besides, in experiment [4], the “Mitochondrial ATP levels” value was “Significantly lower”. Besides, in experiment [5], the “Lipid peroxidation levels (4-hydroxy-2-nonenol)” value is reported as “Significantly higher”. The H2O2 levels entry in experiment [6] is recorded as “significantly increased”. Moreover, in experiment [7], the Cytochrome oxidase activity entry is listed as “Significantly lower”.
